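Grown in 96-well plates, cells were treated for 48 hours with each compound at five concentrations. Insufficient inhibition: endpoint recorded as highest concentration tested. Here, GI50 denotes the concentration required for 50% inhibition of growth.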 Activity calls are given as the source filed them. No stated cut-off is given here; in the data, active = GI50 up to about 1.1 µM and inactive = higher.
Experiments:
Test in all cases: inhibition of tumour cell growth, NCI panel, 48 h
786-0 = tested on: 786-0
A498 = tested on: A498
A549 = tested on: A549
ACHN = tested on: ACHN
BT-549 = tested on: BT-549
CAKI-1 = tested on: CAKI-1
CCRF-CEM = tested on: CCRF-CEM
COLO 205 = tested on: COLO 205
DU-145 = tested on: DU-145
EKVX = tested on: EKVX
HCT-116 = tested on: HCT-116
HCT-15 = tested on: HCT-15
HL-60 = tested on: HL-60
HOP-62 = tested on: HOP-62
HOP-92 = tested on: HOP-92
HT-29 = tested on: HT-29
Hs-578T = tested on: Hs-578T
IGROV-1 = tested on: IGROV-1
K562 = tested on: K562
KM12 = tested on: KM12
LOX IMVI = tested on: LOX IMVI
M14 = tested on: M14
MCF7 = tested on: MCF7
MDA-MB-231 = tested on: MDA-MB-231
MDA-MB-435 = tested on: MDA-MB-435
MDA-N = tested on: MDA-N
MOLT-4 = tested on: MOLT-4
Malme-3M = tested on: Malme-3M
NCI-H226 = tested on: NCI-H226
NCI-H23 = tested on: NCI-H23
NCI-H460 = tested on: NCI-H460
NCI-H522 = tested on: NCI-H522
NCI/ADR-RES = tested on: NCI/ADR-RES
OVCAR-3 = tested on: OVCAR-3
OVCAR-4 = tested on: OVCAR-4
OVCAR-5 = tested on: OVCAR-5
OVCAR-8 = tested on: OVCAR-8
PC-3 = tested on: PC-3
RXF 393 = tested on: RXF 393
SF-268 = tested on: SF-268
SF-295 = tested on: SF-295
SK-MEL-28 = tested on: SK-MEL-28
SK-MEL-5 = tested on: SK-MEL-5
SK-OV-3 = tested on: SK-OV-3
SN12C = tested on: SN12C
SNB-19 = tested on: SNB-19
SNB-75 = tested on: SNB-75
SR = tested on: SR
SW-620 = tested on: SW-620
T47D = tested on: T47D
TK-10 = tested on: TK-10
U-251 = tested on: U-251
UACC-257 = tested on: UACC-257
UACC-62 = tested on: UACC-62
UO-31 = tested on: UO-31
RPMI-8226 = tested on: RPMI-8226
SF-539 = tested on: SF-539
SK-MEL-2 = tested on: SK-MEL-2

`COC(=O)[C@H](Cc1ccccc1)NC(=O)[C@H](Cc1ccccc1)NC(=O)[C@@H]1CCCN1C(=O)N[C@H]1C2C=CC(C2)C1C(=O)N1CCC[C@H]1C(=O)N[C@@H](C)C(=O)N[C@H](C(=O)OC)C(C)C` (stereo partly drawn) was tested, and the GI50 (786-0) was > 100 µM (inactive), the GI50 (A498) was > 100 µM (inactive) and the GI50 (A549) was > 100 µM (inactive). The GI50 (ACHN) was > 100 µM (inactive), the GI50 (BT-549) was 40.9 µM (inactive) and the GI50 (CAKI-1) was > 100 µM (inactive). The GI50 (CCRF-CEM) was 22.5 µM (inactive), the GI50 (COLO 205) was > 100 µM (inactive) and the GI50 (DU-145) was > 100 µM (inactive). For the same molecule, the GI50 (EKVX) was > 100 µM (inactive), the GI50 (HCT-116) was > 100 µM (inactive) and the GI50 (HCT-15) was over 100 µM. The GI50 (HL-60) was 35.7 µM (inactive), the GI50 (HOP-62) was > 100 µM (inactive) and the GI50 (HOP-92) was 73.1 µM (inactive). The GI50 (HT-29) was > 100 µM (inactive), the GI50 (Hs-578T) was 59.6 µM (inactive) and the GI50 (IGROV-1) was 38 µM (inactive). For the same molecule, the GI50 (K562) was 33.9 µM (inactive), the GI50 (KM12) was > 100 µM (inactive) and the GI50 (LOX IMVI) was 41.3 µM (inactive). The GI50 (M14) was > 100 µM (inactive), the GI50 (MCF7) was 56.9 µM (inactive) and the GI50 (MDA-MB-231) was 46.5 µM (inactive). The GI50 (MDA-MB-435) was > 100 µM (inactive), the GI50 (MDA-N) was > 100 µM (inactive) and the GI50 (MOLT-4) was 29.4 µM (inactive). For the same molecule, the GI50 (Malme-3M) was > 100 µM (inactive), the GI50 (NCI-H226) was > 100 µM (inactive) and the GI50 (NCI-H23) was > 100 µM (inactive). For the same molecule, the GI50 (NCI-H460) was > 100 µM (inactive), the GI50 (NCI-H522) was 56.5 µM (inactive) and the GI50 (NCI/ADR-RES) was > 100 µM (inactive). The GI50 (OVCAR-3) was > 100 µM (inactive), the GI50 (OVCAR-4) was > 100 µM (inactive) and the GI50 (OVCAR-5) was > 100 µM (inactive). For the same molecule, the GI50 (OVCAR-8) was > 100 µM (inactive), the GI50 (PC-3) was > 100 µM (inactive) and the GI50 (RXF 393) was > 100 µM (inactive). For the same molecule, the GI50 (SF-268) was 94.2 µM (inactive), the GI50 (SF-295) was 30.8 µM (inactive) and the GI50 (SK-MEL-28) was > 100 µM (inactive). For the same molecule, the GI50 (SK-MEL-5) was > 100 µM (inactive), the GI50 (SK-OV-3) was > 100 µM (inactive) and the GI50 (SN12C) was > 100 µM (inactive). For the same molecule, the GI50 (SNB-19) was > 100 µM (inactive), the GI50 (SNB-75) was > 100 µM (inactive) and the GI50 (SR) was 49.7 µM (inactive). The GI50 (SW-620) was 69.3 µM (inactive), the GI50 (T47D) was 60.1 µM (inactive) and the GI50 (TK-10) was 65.5 µM (inactive). For the same molecule, the GI50 (U-251) was 70.3 µM (inactive), the GI50 (UACC-257) was > 100 µM (inactive) and the GI50 (UACC-62) was 92 µM (inactive). The GI50 (UO-31) was > 100 µM (inactive).
With `OCc1cn(Cc2ccccc2)c2ccccc12` the GI50 (786-0) was 10.7 µM (inactive), the GI50 (A549) was 9.02 µM (inactive) and the GI50 (ACHN) was 28.1 µM (inactive). For the same molecule, the GI50 (BT-549) was 6.59 µM (inactive), the GI50 (CAKI-1) was < 0.0461 µM (active) and the GI50 (CCRF-CEM) was 0.488 µM (active). For the same molecule, the GI50 (COLO 205) was 0.444 µM (active), the GI50 (DU-145) was > 21.6 µM (inactive) and the GI50 (EKVX) was > 73.1 µM (inactive). For the same molecule, the GI50 (HCT-116) was 0.555 µM (active), the GI50 (HCT-15) was 10.8 µM and the GI50 (HL-60) was 5.9 µM (inactive). The GI50 (HOP-62) was 5.32 µM (inactive), the GI50 (HOP-92) was 5.51 µM (inactive) and the GI50 (HT-29) was 1.71 µM (inactive). For the same molecule, the GI50 (Hs-578T) was 12.9 µM (inactive), the GI50 (IGROV-1) was < 0.0356 µM (active) and the GI50 (K562) was 4.48 µM (inactive). For the same molecule, the GI50 (KM12) was > 48 µM (inactive), the GI50 (LOX IMVI) was 19.5 µM (inactive) and the GI50 (M14) was > 32.6 µM (inactive). The GI50 (MCF7) was 0.612 µM (active), the GI50 (MDA-MB-231) was 19.5 µM (inactive) and the GI50 (MDA-MB-435) was > 51.9 µM (inactive). For the same molecule, the GI50 (MDA-N) was 35.6 µM (inactive), the GI50 (MOLT-4) was > 47.3 µM (inactive) and the GI50 (Malme-3M) was 5.46 µM (inactive). For the same molecule, the GI50 (NCI-H23) was 14.4 µM (inactive), the GI50 (NCI-H460) was 0.135 µM (active) and the GI50 (NCI-H522) was 4.65 µM (inactive). The GI50 (NCI/ADR-RES) was 15.2 µM (inactive), the GI50 (OVCAR-3) was 0.232 µM (active) and the GI50 (OVCAR-4) was 0.0378 µM (active). The GI50 (OVCAR-5) was 0.375 µM (active), the GI50 (OVCAR-8) was 13 µM (inactive) and the GI50 (PC-3) was 30.1 µM (inactive). The GI50 (RPMI-8226) was 2.16 µM (inactive), the GI50 (RXF 393) was < 0.0316 µM (active) and the GI50 (SF-268) was 14 µM (inactive). The GI50 (SF-539) was > 34.5 µM (inactive), the GI50 (SK-MEL-28) was > 59.3 µM (inactive) and the GI50 (SK-MEL-2) was 2.56 µM (inactive). The GI50 (SK-MEL-5) was 25.7 µM (inactive), the GI50 (SK-OV-3) was 11 µM (inactive) and the GI50 (SN12C) was 26 µM (inactive). For the same molecule, the GI50 (SNB-19) was > 64.6 µM (inactive), the GI50 (SNB-75) was 1.51 µM (inactive) and the GI50 (SR) was 12.4 µM (inactive). For the same molecule, the GI50 (SW-620) was 1.36 µM (inactive), the GI50 (T47D) was < 0.0411 µM (active) and the GI50 (TK-10) was < 0.0359 µM (active). For the same molecule, the GI50 (U-251) was 1.02 µM (active), the GI50 (UACC-62) was 0.646 µM (active) and the GI50 (UO-31) was > 87.7 µM (inactive).
In the case of `CC1=NNC(=O)C1C1CC(c2c[nH]c3ccccc23)=NNC1=O` (stereo not drawn), the GI50 (786-0) is reported as > 100 µM (inactive), the GI50 (A498) is reported as > 100 µM (inactive) and the GI50 (A549) is reported as > 100 µM (inactive). For the same molecule, the GI50 (ACHN) was > 100 µM (inactive), the GI50 (BT-549) was > 100 µM (inactive) and the GI50 (CAKI-1) was > 100 µM (inactive). The GI50 (CCRF-CEM) was > 100 µM (inactive), the GI50 (COLO 205) was > 100 µM (inactive) and the GI50 (DU-145) was > 100 µM (inactive). For the same molecule, the GI50 (EKVX) was 11.9 µM (inactive), the GI50 (HCT-116) was > 100 µM (inactive) and the GI50 (HCT-15) was over 100 µM. The GI50 (HL-60) was > 100 µM (inactive), the GI50 (HOP-62) was > 100 µM (inactive) and the GI50 (HOP-92) was > 100 µM (inactive). The GI50 (HT-29) was > 100 µM (inactive), the GI50 (Hs-578T) was > 100 µM (inactive) and the GI50 (IGROV-1) was 0.773 µM (active). For the same molecule, the GI50 (K562) was > 100 µM (inactive), the GI50 (KM12) was 62.7 µM (inactive) and the GI50 (M14) was > 100 µM (inactive). The GI50 (MDA-MB-231) was > 100 µM (inactive), the GI50 (MDA-MB-435) was > 100 µM (inactive) and the GI50 (MDA-N) was > 100 µM (inactive). For the same molecule, the GI50 (MOLT-4) was > 100 µM (inactive), the GI50 (Malme-3M) was > 100 µM (inactive) and the GI50 (NCI-H226) was > 100 µM (inactive). For the same molecule, the GI50 (NCI-H23) was > 100 µM (inactive), the GI50 (NCI-H460) was > 100 µM (inactive) and the GI50 (NCI-H522) was > 100 µM (inactive). The GI50 (NCI/ADR-RES) was > 100 µM (inactive), the GI50 (OVCAR-3) was > 100 µM (inactive) and the GI50 (OVCAR-5) was > 100 µM (inactive). For the same molecule, the GI50 (OVCAR-8) was > 100 µM (inactive), the GI50 (PC-3) was > 100 µM (inactive) and the GI50 (RPMI-8226) was > 100 µM (inactive). For the same molecule, the GI50 (RXF 393) was > 100 µM (inactive), the GI50 (SF-268) was > 100 µM (inactive) and the GI50 (SF-295) was > 100 µM (inactive). The GI50 (SF-539) was > 100 µM (inactive), the GI50 (SK-MEL-28) was > 100 µM (inactive) and the GI50 (SK-MEL-2) was > 100 µM (inactive). For the same molecule, the GI50 (SK-MEL-5) was > 100 µM (inactive), the GI50 (SK-OV-3) was > 100 µM (inactive) and the GI50 (SN12C) was > 100 µM (inactive). For the same molecule, the GI50 (SNB-19) was > 100 µM (inactive), the GI50 (SNB-75) was 28.4 µM (inactive) and the GI50 (SW-620) was > 100 µM (inactive). For the same molecule, the GI50 (T47D) was > 100 µM (inactive), the GI50 (TK-10) was > 100 µM (inactive) and the GI50 (U-251) was > 100 µM (inactive). For the same molecule, the GI50 (UACC-257) was > 100 µM (inactive), the GI50 (UACC-62) was > 100 µM (inactive) and the GI50 (UO-31) was > 100 µM (inactive).

— ChEMBL document CHEMBL1201862, “PubChem BioAssay data set” (2004)
